# Reference: patent EP3569594A1, “METHOD FOR THE PREPARATION OF SUBSTITUTED PYRAZINES” (Universität Graz, priority 2018, dated 2019)
# What was measured:
# XenA = assay: Reactivity screening of oximes with purified ene-reductase, conversion by GC-FID; type: biochemical, Pseudomonas putida II-B; details: XenA 100 µg/ml, 10 mM Oxim, 0,5 mM NAD(P)H/H+, Glucose/GDH, Tris-HCl pH 7,5, 30 °C, 24 h
# From the text: (§1) Die En-Reduktase ist zwar nicht speziell eingeschränkt, ist aber vorzugsweise aus der OYE-Familie, d.h. der Familie der "Old Yellow Enzymes" ausgewählt, da Vertreter dieser Gruppe von Enzymen allesamt gute Ergebnisse geliefert haben. Noch bevorzugter ist die ER aus den folgenden bereits getesteten Enzymen ausgewählt: • OYE1 von Saccharomyces pastorianus, • OYE2 von Saccharomyces cerevisiae, • OYE3 von Saccharomyces cerevisiae, • 12-Oxophytodienoat-Reduktase 3 (OPR3) von Arabidopsis thaliana, • xenobiotischer Reduktase A (XenA) von Pseudomonas putida II-B und • En-Reduktase von Ferrovum sp. JA12 (FOYE).
# (§2) Plasmide, die jeweils ein für eine der En-Reduktasen OYE1, OYE2, OYE3, OPR3, XenA und FOYE kodierendes Gen enthielten, wurden in chemisch kompetente E. coli BL21(DE3)-Zellen transformiert. Die sechs Über-Nacht-Kulturen wurden in LB-Medium, das mit 50 µg/ml Kanamycin (für OYE1-3 und FOYE) oder 100 µg/ml Ampicillin (für OPR3 und XenA) ergänzt worden war, bei 30 °C und 120 U/min kultiviert. Hauptkulturen (1 l LB-Medium, 50 µg/ml Kanamycin oder 100 µg/ml Ampicillin) wurden mit je 3 ml der entsprechenden Über-Nacht-Kultur inokuliert und bei 37 °C, 120 U/min geschüttelt, bis die OD600 0,6 bis 0,8 erreichte. Die Proteinproduktion wurde durch Zusatz von Isopropyl-β-D-thiogalactopyranosid (IPTG) (0,2 mM für OYE1-3 und XenA, 1 mM für OPR3 und 0,05 mM für FOYE) induziert und bei 20 °C über Nacht (für OYE1-3 und FOYE) oder bei 37 °C 4 h lang (für XenA und OPR3) geschüttelt. Die Zellen wurden durch Zentrifugation (5000 U/min, 4 °C, 20 min) geerntet, das Pellet wurde mit 100 mM Tris-HCI-Puffer pH 7,5 (25 ml) gewaschen und bei -20 °C gelagert.
# (§3) Als Modellreaktion für die Feststellung der Enzymaktivität wurde im Handel erhältlicher 2-Oximinoacetessigsäureethylester (1a) mit den sechs in den Synthesebeispielen 1 bis 6 hergestellten En-Reduktasen (ER) in analytischem Maßstab umgesetzt. Dazu wurden in ein 2-ml-Eppendorf-Röhrchen 100 µg/ml der jeweiligen gereinigten En-Reduktase, 0,5 mM NAD(P)H/H^+, 50 mM Glucose und 1 mg/ml GDH in 100 mM Tris-HCl-Puffer, pH 7,5, gelöst. Die Reaktionen wurden durch Zugabe von 10 mM Oxim (1a) (aus einer 200 mM Stammlösung in DMSO) auf ein Endvolumen von 500 µl gestartet und 24 h lang bei 30 °C, 120 U/min geschüttelt. Danach wurden die Reaktionsgemische jeweils mit 1 ml Chloroform extrahiert, die organische Phase wurde über MgSO4 getrocknet und mittels GC-FID analysiert und der Umsatz anhand der Peakflächenprozentsätze ermittelt. Wie aus nachstehender Tabelle 1 hervorgeht, wurde nach 24 h in allen sechs Fällen praktisch vollständiger Umsatz festgestellt. Tabelle 1: Anfängliches Reaktivitätsscreening mit Modelloxim (1a)
# (§4) Zur Ermittlung, welche anderen Derivate der 2-Oximinoacetessigsäure mittels enzymatischer Katalyse durch die sechs in den Synthesebeispielen 1 bis 6 hergestellten En-Reduktasen (1) zu Pyrazindicarbonsäure-Derivaten (2) umsetzbar sein würden, wurden die für die Beispiele 1 bis 6 beschriebene Vorgangsweise unter Verwendung der in den Synthesebeispielen 7 bis 13 hergestellten Oxime (1b) bis (1h) anstelle von (1a) wiederholt. Überraschenderweise wurde in sämtlichen Fällen nach 24 h praktisch vollständiger Umsatz beobachtet, wie aus nachstehender Tabelle 2 hervorgeht. Tabelle 2: Reaktivitätsscreening mit den Oximen (1b) bis (1h)
# FOYE [1] = assay: as above; type: biochemical, Ferrovum sp. JA12; details: FOYE 100 µg/ml, 10 mM Oxim, 0,5 mM NAD(P)H/H+, Glucose/GDH, Tris-HCl pH 7,5, 30 °C, 24 h
# From the text: as §1, §2, §3, §4
# OYE1 = target: T1, OYE1 (Saccharomyces pastorianus, UniProt Q02899); assay: as above; type: biochemical; details: OYE1 100 µg/ml, 10 mM Oxim, 0,5 mM NAD(P)H/H+, Glucose/GDH, Tris-HCl pH 7,5, 30 °C, 24 h
# T1 construct: made in house; host or cells: E. coli BL21(DE3)
# T1 sequence (Q02899 whole entry): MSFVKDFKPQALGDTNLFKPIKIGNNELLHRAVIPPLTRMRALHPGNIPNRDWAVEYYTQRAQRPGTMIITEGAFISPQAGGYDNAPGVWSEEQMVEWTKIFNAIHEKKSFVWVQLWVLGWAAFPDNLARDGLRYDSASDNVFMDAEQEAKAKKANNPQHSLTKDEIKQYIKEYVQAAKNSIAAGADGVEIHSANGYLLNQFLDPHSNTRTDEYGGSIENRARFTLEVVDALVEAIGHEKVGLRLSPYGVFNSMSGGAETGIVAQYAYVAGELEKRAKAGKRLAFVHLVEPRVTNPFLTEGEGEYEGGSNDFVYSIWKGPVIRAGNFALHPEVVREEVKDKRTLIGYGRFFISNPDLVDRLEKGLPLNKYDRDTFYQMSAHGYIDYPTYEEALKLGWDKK
# From the text: as §1, §2, §3, §4
# OYE2 = target: T2, OYE2 (Saccharomyces cerevisiae, UniProt Q03558); assay: as above; type: biochemical; details: OYE2 100 µg/ml, 10 mM Oxim, 0,5 mM NAD(P)H/H+, Glucose/GDH, Tris-HCl pH 7,5, 30 °C, 24 h
# T2 construct: made in house; host or cells: E. coli BL21(DE3)
# T2 sequence (Q03558 whole entry): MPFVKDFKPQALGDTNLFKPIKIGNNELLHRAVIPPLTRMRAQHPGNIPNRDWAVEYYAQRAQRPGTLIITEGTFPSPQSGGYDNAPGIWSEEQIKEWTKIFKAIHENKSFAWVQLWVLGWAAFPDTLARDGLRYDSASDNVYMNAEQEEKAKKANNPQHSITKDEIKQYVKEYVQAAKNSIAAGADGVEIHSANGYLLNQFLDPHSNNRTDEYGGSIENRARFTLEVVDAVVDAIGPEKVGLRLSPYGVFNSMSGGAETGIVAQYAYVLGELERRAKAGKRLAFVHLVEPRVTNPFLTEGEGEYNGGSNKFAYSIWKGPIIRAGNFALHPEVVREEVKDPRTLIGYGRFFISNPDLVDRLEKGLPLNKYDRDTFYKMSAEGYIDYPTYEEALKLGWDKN
# From the text: as §1, §2, §3, §4
# OPR3 = target: T3, OPR3 (Arabidopsis thaliana, UniProt Q9FUP0); assay: as above; type: biochemical; details: OPR3 100 µg/ml, 10 mM Oxim, 0,5 mM NAD(P)H/H+, Glucose/GDH, Tris-HCl pH 7,5, 30 °C, 24 h
# T3 construct: made in house; host or cells: E. coli BL21(DE3)
# T3 sequence (Q9FUP0 whole entry): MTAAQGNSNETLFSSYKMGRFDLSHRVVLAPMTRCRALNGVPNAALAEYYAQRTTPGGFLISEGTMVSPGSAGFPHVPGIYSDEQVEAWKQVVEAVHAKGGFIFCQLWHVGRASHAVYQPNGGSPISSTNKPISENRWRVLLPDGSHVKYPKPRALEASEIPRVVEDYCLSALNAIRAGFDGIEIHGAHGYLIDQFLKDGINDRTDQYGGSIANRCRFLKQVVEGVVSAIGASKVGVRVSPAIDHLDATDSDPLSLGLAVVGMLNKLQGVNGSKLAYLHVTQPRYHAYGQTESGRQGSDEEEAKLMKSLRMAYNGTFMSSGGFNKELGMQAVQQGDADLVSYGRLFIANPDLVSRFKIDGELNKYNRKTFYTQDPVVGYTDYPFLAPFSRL
# From the text: as §1, §2, §3, §4
# OYE3 = target: T4, OYE3 (Saccharomyces cerevisiae, UniProt P41816); assay: as above; type: biochemical; details: OYE3 100 µg/ml, 10 mM Oxim, 0,5 mM NAD(P)H/H+, Glucose/GDH, Tris-HCl pH 7,5, 30 °C, 24 h
# T4 construct: made in house; host or cells: E. coli BL21(DE3)
# T4 sequence (P41816 whole entry): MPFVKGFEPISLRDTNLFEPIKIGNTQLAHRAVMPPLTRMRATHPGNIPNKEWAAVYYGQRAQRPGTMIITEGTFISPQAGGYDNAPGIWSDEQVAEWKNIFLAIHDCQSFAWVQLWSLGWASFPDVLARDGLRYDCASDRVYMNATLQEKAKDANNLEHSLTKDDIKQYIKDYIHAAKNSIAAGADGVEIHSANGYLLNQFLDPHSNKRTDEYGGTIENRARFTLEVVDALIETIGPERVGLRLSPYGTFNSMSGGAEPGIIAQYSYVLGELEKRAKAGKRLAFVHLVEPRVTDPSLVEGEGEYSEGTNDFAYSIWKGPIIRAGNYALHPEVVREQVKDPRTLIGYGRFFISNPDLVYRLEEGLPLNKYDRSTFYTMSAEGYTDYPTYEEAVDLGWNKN
# From the text: as §1, §2, §3, §4
# FOYE [2] = assay: Photometric activity measurement by consumption of coenzyme NAD(P)H/H+ with diketone oximes; type: biochemical, Ferrovum sp. JA12
# From the text: Zur Untersuchung, ob die enzymatische Katalyse auch mit 2-Oximino-1,3-diketonen anstelle der 2-Oximinoacetessigsäure-Derivate als Substrate abläuft, d.h. ob das Carbonsäure-Ende des Substratmoleküls für die Reaktion erforderlich ist, wurden die drei nachstehend dargestellten Diketon-Oxime (3a), (3b) und (3c) [drawing 12] auf analoge Weise zu den obigen Synthesebeispielen 7 bis 13 aus den entsprechenden Diketon-Ausgangsprodukten (Acetylaceton, ω-Acetylacetophenon und 1-Isopropylacetylaceton) hergestellt und auf analoge Weise zu den obigen Beispielen 7 und 8 mit FOYE als En-Reduktase umgesetzt.
# Während der Reaktionen wurden photometrische Aktivitätsmessungen durchgeführt, bei denen die Enzymaktivität anhand des Verbrauchs des Coenzyms NAD(P)H/H^+ bestimmt wurde. Die Ergebnisse sind in nachstehender Tabelle 3 angeführt. Tabelle 3: Reaktivitätsscreening mit den Diketon-Oximen (3a) bis (3c)
Umsatz (XenA) [%],Umsatz (FOYE [1]) [%],Umsatz (OYE1) [%],Umsatz (OYE2) [%],Umsatz (OPR3) [%],Umsatz (OYE3) [%],Aktivität (FOYE [2]) [U/mg],SMILES
> 99,> 99,> 99,> 99,> 99,> 99,–,"CCOC(=O)C(=NO)C(C)=O [(1a), 2-Oximinoacetessigsäureethylester, reference compound]"
> 99,> 99,> 99,> 99,> 99,> 99,–,"CC(=O)C(=NO)C(=O)Nc1ccccc1 [(1b), 2-Oximinoacetessigsäure-N-phenylamid]"
> 99,> 99,> 99,> 99,> 99,> 99,–,"C=CCOC(=O)C(=NO)C(C)=O [(1c), 2-Oximinoacetessigsäureallylester]"
> 99,> 99,> 99,> 99,> 99,> 99,–,"CCCCOC(=O)C(=NO)C(C)=O [(1d), 2-Oximinoacetessigsäurebutylester]"
> 99,> 99,> 99,> 99,> 99,> 99,–,"CC(=O)C(=NO)C(=O)OCc1ccccc1 [(1e), 2-Oximinoacetessigsäurebenzylester]"
> 99,> 99,> 99,> 99,> 99,> 99,–,"CCCCCCCOC(=O)C(=NO)C(C)=O [(1f), 2-Oximinoacetessigsäureheptylester]"
> 99,> 99,> 99,> 99,> 99,> 99,–,"COCCOC(=O)C(=NO)C(C)=O [(1g), 2-Oximinoacetessigsäure-2-methoxyethylester]"
> 99,> 99,> 99,> 99,> 99,> 99,–,"CCOC(=O)C(=NO)C(=O)CC [(1h), 4-Methyl-2-oximinoacetessigsäureethylester]"
–,–,–,–,–,–,6,"CC(=O)C(=NO)C(C)=O [Oxim 3a, 3-Oximinoacetylaceton]"
–,–,–,–,–,–,18,"CC(=O)C(=NO)C(=O)c1ccccc1 [Oxim 3b, α-Acetyl-α-oximinoacetophenon]"
–,–,–,–,–,–,23,"CC(=O)C(=NO)C(=O)CC(C)C [Oxim 3c, 1-Isopropyl-3-oximinoacetylaceton]"
